Legend:
[1] = tested on: sugar beet calli (diploid genotype 7T9044); assay: cells; format: cell-based, Beta vulgaris
Procedure: Sugar beet cell cultures were initiated from seedlings of a diploid sugar beet genotype 7T9044 (as, for example, described by Alexander Dovzhenko, PhD Thesis, Title: “Towards plastid transformation in rapeseed (Brassica napus L.) and sugarbeet (Beta vulgaris L.)”, Ludwig-Maximilians-Universität München, Germany, 2001). Sugar beet seeds were immersed for 60 seconds in 70% ethanol, then rinsed twice in sterile water with 0.01% detergent and then incubated for 1-4 hours in 1% NaOCl bleach. Thereafter the seeds were washed 3 times with sterile H2O and the seeds were stored in sterile water overnight at 4° C. The embryos were then isolated using forceps and scalpel.
The freshly prepared embryos were immersed in 0.5% NaOCl for 30 min and then washed 3 times in sterile water. After the last washing step they were placed on hormone free MS agar medium (Murashige and Skoog (1962), Physiol. Plantarum, 15, 473-497). Those embryos which developed into sterile seedlings were used for the initiation of regenerable sugar beet cell cultures.
Cotyledons as well as hypocotyls were cut into 2-5 mm long segments and then cultivated on agar (0.8%) solidified MS medium containing either 1 mg/l Benzylaminopurine (BAP) or 0.25 mg/l Thidiazuron (TDZ). 4 weeks later the developing shoot cultures were transferred onto fresh agar medium of the same composition and then sub-cultured in monthly intervals. […]

[2] = tested on: ALS in leaf extracts of wild type sugar beets and SB574TL; assay: ALS enzyme activity measurements from plant leaf extracts; format: biochemical, Beta vulgaris
Source text: When plants are used, ALS activity is preferably determined in cell extracts or leaf extracts of wild type and B. vulgaris cell extracts or leaf extracts of the obtained mutant in the presence of various concentrations of ALS-inhibitor herbicides, preferably sulfonylurea herbicides or sulfonylamino-carbonyltriazolinone herbicides, more preferably in the presence of various concentrations of the ALS inhibitor herbicide “foramsulfuron”. ALS is thus preferably extracted from sugar beet leaves or sugar beet tissue cultures as described by Ray (1984) in Plant Physiol 75:827-831.
ALS was extracted from sugar beet leaves or sugar beet tissue cultures as described by Ray (1984), Plant Physiol 75:827-831.
ALS activity was determined in leaf extracts of wild type and sugar beets and leaf extracts of the obtained SB574TL in presence of various concentrations of foramsulfuron as described in Example 4.
In total, the mutant enzyme was at least 2000 times less sensitive against the ALS inhibitor foramsulfuron than the wild type enzyme.

[3] = tested on: SB574TL sugar beet cell colony; assay: Growth of selected mutant cell colony (clone SB574TL) on foramsulfuron medium; format: cell-based, Beta vulgaris; conditions: 3×10^−7 M and even 3×10^−6 M foramsulfuron
Source text: When this callus type was exposed to 10^−9 M of the sulfonylurea foramsulfuron (CAS RN 173159-57-4), the cells survived, but produced less than 50% of the biomass of their siblings on medium devoid of the inhibitor. On medium containing 3×10^−8 M foramsulfuron no growth was detectable. For large scale mutant selection experiments 10^−7 M foramsulfuron was chosen. Surviving and growing cell colonies were numbered and transferred after 4-6 weeks onto fresh medium containing 3×10^−7 M of the inhibitor. One of these cell colonies was able to grow not only at this concentration of the inhibitor but even in presence of 3×10^−6 M of foramsulfuron. From this clone (SB574TL), shoots were regenerated in presence of the ALS-inhibitor herbicide and then the shoots were transferred to MS medium containing 0.05 mg/l Naphthalene acetic acid (NAA).
When this callus type was exposed to 10^−9 M of the ALS inhibitor herbicide foramsulfuron (belonging to the sulfonylurea subclass, see above), the cells survived, but produced less than 50% of the biomass of their siblings on medium devoid of the inhibitor. On medium containing 3×10^−8 M foramsulfuron no growth was detectable. For large scale mutant selection experiments, 10^−7 M foramsulfuron was chosen. Surviving and growing cell colonies were numbered and transferred after 4-6 weeks onto fresh medium containing 3×10^−7 M of the inhibitor. […]

[4] = tested on: wild type sugar beet plants; assay: Herbicide treatment of regenerated plants from wild type cell cultures (greenhouse); format: in vivo, Beta vulgaris; conditions: lowest doses tested (range 7-70 g a.i./ha foramsulfuron, 1-10 g a.i./ha iodosulfuron-methyl-sodium, mixtures 7:1)
Source text: (§1) Within 4-12 weeks the shoots formed roots and then they were transferred into sterile plant containers filled with wet, sterilized perlite, watered with half strength MS inorganic ingredients. Alternatively the plantlets were transferred directly from the agar solidified medium in a perlite containing soil mixture in the greenhouse. During the first 10-15 days after transfer into soil containing substrate the plants were kept in an environment with high air humidity. During and after they were weaned to normal greenhouse air humidity regimes the plants were kept in the greenhouse under artificial light (12 h) at 20+−3° C./15+−2° C. day/night temperatures.
(§2) 3-5 weeks later, the regenerated plants from the above obtained foramsulfuron tolerant cell culture (SB574TL) as well as from the wild type cell cultures were treated with foramsulfuron, iodosulfuron-methyl-sodium (CAS RN […]) and a mixture of both active ingredients. The herbicide doses tested were equivalent to 7-70 g a.i./ha for foramsulfuron and 1-10 g a.i./ha for iodosulfuron-methyl-sodium.

[5] = tested on: Beta vulgaris wild-type and W574L-mutant (SB574TL) ALS; assay: ALS enzyme activity measurements, E. coli expressed enzyme; format: biochemical; conditions: crude protein extract, from pI50-values
Procedure: The coding sequence of a Beta vulgaris wild-type and a mutant B. vulgaris plant is cloned into, for example, Novagen pET-32a(+) vectors and the vectors are transformed into, for example, Escherichia coli AD494 according to the instructions of the manufacturer. Bacteria are preferably grown at 37° C. in medium under selection pressure such as in LB-medium containing 100 mg/l carbenicillin and 25 mg/l kanamycin, are induced with, for example, 1 mM isopropyl-β-D-thiogalactopyranoside at an OD600 of preferably about 0.6, cultivated for about 16 hours at preferably 18° C. and harvested by centrifugation. Bacterial pellets are resuspended in 100 mM sodium phosphate buffer pH 7.0 containing 0.1 mM thiamine-pyrophosphate, 1 mM MgCl2, and 1 μM FAD at a concentration of 1 gram wet weight per 25 ml of buffer and disrupted by sonification. The crude protein extract obtained after centrifugation is used for ALS activity measurements.
ALS assays are then carried out in, for example, 96-well microtiter plates using a modification of the procedure described by Ray (1984), Plant Physiol., 75, 827-831. The reaction mixture contains preferably 20 mM potassium phosphate buffer pH 7.0, […], 0.45 mM thiamine-pyrophosphate, 0.45 mM MgCl2, 9 μM FAD, ALS enzyme and various concentrations of ALS inhibitors in a final volume of about 90 μl. […]

[6] = tested on: regenerated plants from SB574TL cell culture; assay: Herbicide treatment of regenerated plants from the foramsulfuron tolerant cell culture (greenhouse); format: in vivo, Beta vulgaris; conditions: highest doses tested (range 7-70 g a.i./ha foramsulfuron, 1-10 g a.i./ha iodosulfuron-methyl-sodium, mixtures 7:1)
Source text: as §1, §2

Structure (SMILES) | cell survival of callus ([1]; 10^−9 M foramsulfuron in medium) | viability at 0.001 µM ([1]; Beta vulgaris, read-out: biomass relative to siblings on medium devoid of the inhibitor) [%] | sensitivity of mutant enzyme relative to wild type enzyme (times less sensitive) [2] | growth of mutant cell colony [3] | effect on wild type plants [4] | sensitivity of mutant enzyme relative to wild type enzyme (times less sensitive) [5] | tolerance of regenerated plants to herbicide [6]
COc1cc(OC)nc(NC(=O)NS(=O)(=O)c2cc(NC=O)ccc2C(=O)N(C)C)n1 [foramsulfuron] | survived | < 50 | at least 2000 times | able to grow | killed | at least 2000 times | tolerated even the highest herbicide doses
COC(=O)c1ccc(I)cc1S(=O)(=O)[N-]C(=O)Nc1nc(C)nc(OC)n1.[Na+] [iodosulfuron-methyl-sodium] |  |  |  |  | killed |  | tolerated even the highest herbicide doses

Source: US10865406B2, “ALS inhibitor herbicide tolerant Beta vulgaris mutants” (priority 2010, dated 2020)
